pEC50, pKi: −log10 of the molar value. Starred links: 1 amine or outer side, 2 acyl side, 3 side chain; linkers in the order of their positions; H or OH if unused. Non-standard residues stand in square brackets, D forms with d. Residues, ends and D or L forms follow the SMILES beside them. *: point of attachment. Bpa = N[C@@H](Cc1ccc(C(=O)c2ccccc2)cc1)C(=O)O; X1 = O=C([C@]1(Cc2ccccc2)CCCN1[*:1])[*:2]; 1Nal = N[C@@H](Cc1cccc2ccccc12)C(=O)O; αMeF = C[C@](N)(Cc1ccccc1)C(=O)O; Tic = O=C(O)[C@@H]1Cc2ccccc2CN1; Cha = N[C@@H](CC1CCCCC1)C(=O)O; Tle = CC(C)(C)[C@H](N)C(=O)O; Nle = CCCC[C@H](N)C(=O)O; Ac5c = NC1(C(=O)O)CCCC1; Aze = O=C(O)[C@@H]1CCN1; Ac3c = NC1(C(=O)O)CC1; Bn = c1ccc(C*)cc1
Legend:
[1] = target: T1, Apelin receptor (Homo sapiens, UniProt P35414); test: Agonist activity at human APJ receptor expressed in HEK293T cells co-expressing PDZ-Rho-Gef-RLucll assessed as induction of Galpha12 effector (PDZ-RhoGEF) to the cell membrane incubated for 5 mins by BRET assay; assay type: functional, cell-based
T1 sequence (P35414 whole entry): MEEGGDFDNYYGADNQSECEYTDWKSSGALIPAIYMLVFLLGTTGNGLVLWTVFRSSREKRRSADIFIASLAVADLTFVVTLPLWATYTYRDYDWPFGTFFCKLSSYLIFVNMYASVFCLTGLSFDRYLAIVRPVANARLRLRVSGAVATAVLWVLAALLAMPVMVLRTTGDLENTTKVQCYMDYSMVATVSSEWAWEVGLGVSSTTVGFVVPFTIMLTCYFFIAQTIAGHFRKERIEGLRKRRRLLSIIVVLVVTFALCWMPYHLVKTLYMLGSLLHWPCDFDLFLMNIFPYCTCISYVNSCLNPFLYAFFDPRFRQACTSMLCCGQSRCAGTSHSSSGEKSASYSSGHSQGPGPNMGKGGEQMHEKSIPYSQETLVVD

[2] = target: T1, Apelin receptor; test: Agonist activity at human APJ receptor expressed in HEK293 cells co-expressing Galpha(i1)-RlucII(91) assessed as induction of dissociation of Galpha(i1) from G-beta-gamma subunits incubated for 5 mins by BRET assay; assay type: cell-based
[3] = target: T1, Apelin receptor; test: Displacement of [125I] [NIe75, Tyr77]Pyr-apelin-13 from YFP-tagged human APJ receptor expressed in HEK293 cell membranes incubated for 1 hr by gamma counting based Cheng-Prusoff equation analysis
[4] = target: T1, Apelin receptor; test: Agonist activity at human APJ receptor expressed in HEK293 cells co-expressing Rlucll-beta-arrestin2 assessed as induction of beta-arrestin2 recruitment to APJ incubated for 30 mins by BRET assay; assay type: cell-based

| pEC50 [1] | pEC50 [2] | pKi [3] | pEC50 [4] | Structure (SMILES) |
| --- | --- | --- | --- | --- |
| 7.15 | 8.92 | 8.62 | 7.10 | CCCC[C@H](N)C(=O)N1CCC[C@H]1C(=O)NC1(C(=O)N[C@@H](Cc2cnc[nH]2)C(=O)N[C@@H](CO)C(=O)N[C@@H](CCCNC(=N)N)C(=O)N[C@H](C(=O)N2CCC[C@H]2C(=O)N[C@@H](Cc2ccccc2)C(=O)N2CCC[C@H]2C(=O)O)C(C)C)CCCC1 (H-[Nle]P[Ac5c]HSRVPFP-OH) |
| 6.65 | 8.16 | 8.29 | 6.76 | CCCC[C@H](N)C(=O)N1CCC[C@H]1C(=O)N[C@@H](CC(C)C)C(=O)N[C@@H](Cc1cnc[nH]1)C(=O)N[C@@H](CO)C(=O)N[C@@H](CCCNC(=N)N)C(=O)N[C@H](C(=O)N1CCC[C@H]1C(=O)N[C@@H](Cc1ccccc1)C(=O)N1C2CCCCC2C[C@H]1C(=O)O)C(C)C (stereo partly specified) |
| 7.13 | 8.96 | 8.96 | 7.06 | CCCC[C@H](N)C(=O)N1CCC[C@H]1C(=O)N[C@@](C)(CC(C)C)C(=O)N[C@@H](Cc1cnc[nH]1)C(=O)N[C@@H](CO)C(=O)N[C@@H](CCCNC(=N)N)C(=O)N[C@H](C(=O)N1CCC[C@H]1C(=O)N[C@@H](Cc1ccccc1)C(=O)N1CCC[C@H]1C(=O)O)C(C)C |
| 7.03 | 8.55 | 8.40 | 6.92 | CCCC[C@H](N)C(=O)N1CCC[C@H]1C(=O)N[C@@H](CC1CCCCC1)C(=O)N[C@@H](Cc1cnc[nH]1)C(=O)N[C@@H](CO)C(=O)N[C@@H](CCCNC(=N)N)C(=O)N[C@H](C(=O)N1CCC[C@H]1C(=O)N[C@@H](Cc1ccccc1)C(=O)N1CCC[C@H]1C(=O)O)C(C)C (H-[Nle]P[Cha]HSRVPFP-OH) |
| 5.82 | 7.72 | 7.72 | 6.42 | CCCC[C@H](N)C(=O)N1CCC[C@H]1C(=O)N[C@@H](CC(C)C)C(=O)N[C@@H](Cc1cnc[nH]1)C(=O)N[C@@H](CO)C(=O)N[C@@H](CCCNC(=N)N)C(=O)N[C@H](C(=O)N1CCC[C@H]1C(=O)N[C@@H](Cc1ccccc1)C(=O)N[C@@H](Cc1ccc(OCc2ccccc2)cc1)C(=O)O)C(C)C (H-[Nle]PLHSRVPFY(Bn)-OH) |
| 6.29 | 8.19 | 7.60 | 6.72 | CCCC[C@H](N)C(=O)N1CCC[C@H]1C(=O)N[C@@](C)(Cc1ccccc1)C(=O)N[C@@H](Cc1cnc[nH]1)C(=O)N[C@@H](CO)C(=O)N[C@@H](CCCNC(=N)N)C(=O)N[C@H](C(=O)N1CCC[C@H]1C(=O)N[C@@H](Cc1ccccc1)C(=O)N1CCC[C@H]1C(=O)O)C(C)C (H-[Nle]P[αMeF]HSRVPFP-OH) |
| 5.98 | 7.64 | 7.68 | 6.27 | CCCC[C@H](N)C(=O)N1CCC[C@H]1C(=O)N[C@@H](CC(C)C)C(=O)N[C@@H](Cc1cnc[nH]1)C(=O)N[C@@H](CO)C(=O)N[C@@H](CCCNC(=N)N)C(=O)N[C@H](C(=O)N1CCC[C@H]1C(=O)N[C@@H](Cc1cccc2ccccc12)C(=O)N1CCC[C@H]1C(=O)O)C(C)C (H-[Nle]PLHSRVP[1Nal]P-OH) |
| 7.37 | 8.64 | 8.40 | 7.28 | CCCC[C@H](N)C(=O)N1CCC[C@H]1C(=O)N[C@@H](CC(C)C)C(=O)N[C@@H](Cc1cnc[nH]1)C(=O)N[C@@H](CO)C(=O)N[C@@H](CCCNC(=N)N)C(=O)N[C@H](C(=O)N1CCC[C@H]1C(=O)N[C@@H](Cc1ccccc1)C(=O)N[C@@H](Cc1ccccc1)C(=O)O)C(C)C (H-[Nle]PLHSRVPFF-OH) |
| 7.52 | 8.35 | 7.89 | 6.91 | CCCC[C@H](N)C(=O)N1CCC[C@H]1C(=O)N[C@@H](CC(C)C)C(=O)N[C@@H](Cc1cnc[nH]1)C(=O)N[C@@H](CO)C(=O)N[C@@H](CCCNC(=N)N)C(=O)N[C@H](C(=O)N1CCC[C@H]1C(=O)N[C@@H](Cc1ccccc1)C(=O)N[C@@H](Cc1cccc2ccccc12)C(=O)O)C(C)C (H-[Nle]PLHSRVPF[1Nal]-OH) |
| 6.28 | 8.34 | 7.70 | 6.83 | CCCC[C@H](N)C(=O)N1CCC[C@H]1C(=O)N[C@@H](CC(C)C)C(=O)N[C@@H](Cc1cnc[nH]1)C(=O)N[C@@H](CO)C(=O)N[C@@H](CCCNC(=N)N)C(=O)N[C@H](C(=O)N1CCC[C@H]1C(=O)N[C@@H](Cc1ccccc1)C(=O)N[C@@H](CC(C)C)C(=O)O)C(C)C (H-[Nle]PLHSRVPFL-OH) |
| 6.10 | 8.62 | 7.68 | 6.40 | CCCC[C@H](N)C(=O)N1CCC[C@H]1C(=O)N[C@H](C(=O)N[C@@H](Cc1cnc[nH]1)C(=O)N[C@@H](CO)C(=O)N[C@@H](CCCNC(=N)N)C(=O)N[C@H](C(=O)N1CCC[C@H]1C(=O)N[C@@H](Cc1ccccc1)C(=O)N1CCC[C@H]1C(=O)O)C(C)C)C(C)(C)C (H-[Nle]P[Tle]HSRVPFP-OH) |
| – | – | 6.04 | – | CCCC[C@H](N)C(=O)N1CCC[C@H]1C(=O)N[C@@H](CC(C)C)C(=O)N[C@@H](Cc1cnc[nH]1)C(=O)N[C@@H](CO)C(=O)N[C@@H](CCCNC(=N)N)C(=O)N[C@H](C(=O)N1CCC[C@H]1C(=O)N[C@@H](Cc1ccccc1)C(=O)N1CCC[C@@]1(Cc1ccccc1)C(=O)O)C(C)C (H-[Nle]PLHSRVPF[X1]-OH) |
| – | – | 6.56 | – | CCCC[C@H](N)C(=O)N1CCC[C@H]1C(=O)NC1(C(=O)N[C@@H](Cc2cnc[nH]2)C(=O)N[C@@H](CO)C(=O)N[C@@H](CCCNC(=N)N)C(=O)N[C@H](C(=O)N2CCC[C@H]2C(=O)N[C@@H](Cc2ccccc2)C(=O)N2CCC[C@H]2C(=O)O)C(C)C)CC1 (H-[Nle]P[Ac3c]HSRVPFP-OH) |
| – | – | 6.32 | – | CCCC[C@H](N)C(=O)N1CCC[C@H]1C(=O)N[C@@H](CC(C)C)C(=O)N[C@@H](CC1CCCCC1)C(=O)N[C@@H](CO)C(=O)N[C@@H](CCCNC(=N)N)C(=O)N[C@H](C(=O)N1CCC[C@H]1C(=O)N[C@@H](Cc1ccccc1)C(=O)N1CCC[C@H]1C(=O)O)C(C)C (H-[Nle]PL[Cha]SRVPFP-OH) |
| – | – | 6.80 | – | CCCC[C@H](N)C(=O)N1CCC[C@H]1C(=O)N[C@@H](CC(C)C)C(=O)N[C@@H](Cc1cnc[nH]1)C(=O)N[C@@H](CO)C(=O)N[C@@H](CCCNC(=N)N)C(=O)N[C@H](C(=O)N1CC[C@H]1C(=O)N[C@@H](Cc1ccccc1)C(=O)O)C(C)C (H-[Nle]PLHSRV[Aze]F-OH) |
| – | – | < 5.00 | – | CCCC[C@H](N)C(=O)N1CCC[C@H]1C(=O)N[C@@H](CC(C)C)C(=O)N[C@@H](Cc1cnc[nH]1)C(=O)N[C@@H](CO)C(=O)N[C@@H](CCCNC(=N)N)C(=O)NC1(C(=O)N2CCC[C@H]2C(=O)N[C@@H](Cc2ccccc2)C(=O)N2CCC[C@H]2C(=O)O)CCCC1 (H-[Nle]PLHSR[Ac5c]PFP-OH) |
| – | – | < 5.00 | – | CCCC[C@H](N)C(=O)N1CCC[C@H]1C(=O)N[C@@H](CC(C)C)C(=O)N[C@@H](Cc1cnc[nH]1)C(=O)N[C@@H](CO)C(=O)N[C@@H](CCCNC(=N)N)C(=O)N[C@H](C(=O)NC1(C(=O)N[C@@H](Cc2ccccc2)C(=O)O)CC1)C(C)C (H-[Nle]PLHSRV[Ac3c]F-OH) |
| – | – | 7.54 | – | CCCC[C@H](N)C(=O)N1CCC[C@H]1C(=O)N[C@@H](CC(C)C)C(=O)N[C@@H](Cc1cnc[nH]1)C(=O)N[C@@H](CO)C(=O)N[C@@H](CCCNC(=N)N)C(=O)N[C@H](C(=O)N1CCC[C@H]1C(=O)N[C@@H](Cc1ccccc1)C(=O)N1Cc2ccccc2C[C@H]1C(=O)O)C(C)C (H-[Nle]PLHSRVPF[Tic]-OH) |
| – | – | 7.03 | – | CCCC[C@H](N)C(=O)N1CCC[C@H]1C(=O)N[C@@H](CC(C)C)C(=O)N[C@@H](Cc1cnc[nH]1)C(=O)N[C@@H](CO)C(=O)N[C@@H](CCCNC(=N)N)C(=O)N[C@H](C(=O)N1CCC[C@H]1C(=O)N[C@@H](Cc1cccc2ccccc12)C(=O)O)C(C)C (H-[Nle]PLHSRVP[1Nal]-OH) |
| – | – | 6.82 | – | CCCC[C@H](N)C(=O)N1CCC[C@H]1C(=O)N[C@@H](CC(C)C)C(=O)N[C@@H](Cc1cnc[nH]1)C(=O)N[C@@H](CO)C(=O)N[C@@H](CCCNC(=N)N)C(=O)N[C@@H](CC1CCCCC1)C(=O)N1CCC[C@H]1C(=O)N[C@@H](Cc1ccccc1)C(=O)N1CCC[C@H]1C(=O)O (H-[Nle]PLHSR[Cha]PFP-OH) |
| – | – | 7.42 | – | CCCC[C@H](N)C(=O)N1CCC[C@H]1C(=O)N[C@@H](CC(C)C)C(=O)N[C@@H](Cc1cnc[nH]1)C(=O)N[C@@H](CO)C(=O)N[C@@H](CCCNC(=N)N)C(=O)N[C@H](C(=O)N1CCC[C@H]1C(=O)N[C@@H](Cc1ccccc1)C(=O)N1C[C@H](OCc2ccccc2)C[C@H]1C(=O)O)C(C)C |
| – | – | 7.32 | – | CCCC[C@H](N)C(=O)N1CCC[C@H]1C(=O)N[C@@H](CC(C)C)C(=O)N[C@@H](Cc1cnc[nH]1)C(=O)N[C@@H](CO)C(=O)N[C@@H](CCCNC(=N)N)C(=O)N[C@H](C(=O)N1CCC[C@H]1C(=O)N[C@@H](Cc1ccc(C(=O)c2ccccc2)cc1)C(=O)O)C(C)C (H-[Nle]PLHSRVP[Bpa]-OH) |
| – | – | 6.38 | – | CCCC[C@H](N)C(=O)N1CCC[C@H]1C(=O)N[C@@H](CC(C)C)C(=O)N[C@@H](Cc1cnc[nH]1)C(=O)N[C@@H](CO)C(=O)N[C@@H](CCCNC(=N)N)C(=O)N[C@@H](C)C(=O)N1CCC[C@H]1C(=O)N[C@@H](Cc1ccccc1)C(=O)N1CCC[C@H]1C(=O)O (H-[Nle]PLHSRAPFP-OH) |
